Assays:
Cytochrome P450 2E1 [1] = target: T1, Cytochrome P450 2E1 (Homo sapiens, UniProt P05181); experiment: Mechanism based inhibition of human cytochrome P450 2E1 measured by chlorzoxazone 6-hydroxylase activity; format: ADME
Cytochrome P450 2C8 [2] = target: T2, Cytochrome P450 2C8 (Homo sapiens, UniProt P10632)
T2 sequence (P10632 whole entry): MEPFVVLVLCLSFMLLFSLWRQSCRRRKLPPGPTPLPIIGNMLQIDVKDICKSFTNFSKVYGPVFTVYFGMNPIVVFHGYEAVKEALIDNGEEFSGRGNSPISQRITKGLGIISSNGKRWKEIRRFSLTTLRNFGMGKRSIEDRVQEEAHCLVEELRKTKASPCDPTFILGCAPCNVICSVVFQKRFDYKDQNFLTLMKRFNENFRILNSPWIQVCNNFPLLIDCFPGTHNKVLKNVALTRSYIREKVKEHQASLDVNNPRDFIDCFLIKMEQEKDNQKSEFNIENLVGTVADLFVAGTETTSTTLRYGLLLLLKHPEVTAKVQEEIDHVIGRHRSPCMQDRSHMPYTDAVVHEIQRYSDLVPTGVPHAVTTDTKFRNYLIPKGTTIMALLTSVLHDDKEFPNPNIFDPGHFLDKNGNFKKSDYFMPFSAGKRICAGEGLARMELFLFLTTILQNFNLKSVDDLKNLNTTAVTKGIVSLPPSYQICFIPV
Description: (§4) Mechanism based inhibition of human cytochrome P450 2C8 measured by paclitaxel hydroxylation using a recombinant system

Cytochrome P450 2C8 [3] = target: T2, Cytochrome P450 2C8; experiment: Mechanism based inhibition of human cytochrome P450 2C8 using human liver microsomes; format: ADME, Microsome
Cytochrome P450 2A6 = target: T3, Cytochrome P450 2A6 (Homo sapiens, UniProt P11509); experiment: Mechanism based inhibition of human cytochrome P450 2A6 measured by coumarin 7-hydroxylation; format: ADME
T3 sequence (P11509 whole entry): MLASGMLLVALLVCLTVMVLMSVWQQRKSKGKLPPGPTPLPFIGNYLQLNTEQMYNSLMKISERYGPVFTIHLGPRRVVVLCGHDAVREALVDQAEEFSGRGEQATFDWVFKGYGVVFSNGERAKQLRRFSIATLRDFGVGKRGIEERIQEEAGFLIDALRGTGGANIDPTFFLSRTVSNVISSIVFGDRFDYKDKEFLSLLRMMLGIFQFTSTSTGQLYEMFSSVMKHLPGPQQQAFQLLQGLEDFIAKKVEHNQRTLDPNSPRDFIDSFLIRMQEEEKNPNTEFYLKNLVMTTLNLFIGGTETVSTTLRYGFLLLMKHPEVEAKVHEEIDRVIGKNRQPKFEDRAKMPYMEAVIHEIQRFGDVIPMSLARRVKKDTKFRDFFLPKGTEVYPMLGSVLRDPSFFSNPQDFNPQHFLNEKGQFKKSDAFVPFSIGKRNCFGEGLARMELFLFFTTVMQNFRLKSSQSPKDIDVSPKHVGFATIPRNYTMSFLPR

Cytochrome P450 2C19 [4] = target: T4, Cytochrome P450 2C19 (Homo sapiens, UniProt P33261); experiment: Mechanism based inhibition of human cytochrome P450 2C19 evaluated using Tolbutamide; format: ADME
Cytochrome P450 1A2 [5] = target: T5, Cytochrome P450 1A2 (Homo sapiens, UniProt P05177); experiment: Mechanism based inhibition of human cytochrome P450 1A2 measured by phenacetin O-deethylation (POD); format: ADME
T5 sequence (P05177 whole entry): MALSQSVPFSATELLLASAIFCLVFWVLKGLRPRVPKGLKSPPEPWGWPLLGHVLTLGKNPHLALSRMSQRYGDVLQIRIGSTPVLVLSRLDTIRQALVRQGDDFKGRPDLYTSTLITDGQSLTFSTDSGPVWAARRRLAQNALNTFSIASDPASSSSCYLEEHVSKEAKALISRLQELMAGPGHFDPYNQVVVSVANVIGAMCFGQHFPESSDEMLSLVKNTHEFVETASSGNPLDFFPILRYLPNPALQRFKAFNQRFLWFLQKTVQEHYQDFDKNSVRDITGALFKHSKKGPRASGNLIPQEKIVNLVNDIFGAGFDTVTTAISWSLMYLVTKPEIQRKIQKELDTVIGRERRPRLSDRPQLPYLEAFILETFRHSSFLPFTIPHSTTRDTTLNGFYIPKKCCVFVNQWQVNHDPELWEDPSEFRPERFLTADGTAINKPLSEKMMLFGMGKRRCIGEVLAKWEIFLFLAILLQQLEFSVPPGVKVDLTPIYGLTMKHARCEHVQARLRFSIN

Cytochrome P450 2C9 [6] = target: T6, Cytochrome P450 2C9 (Homo sapiens, UniProt P11712); experiment: Mechanism based inhibition of human cytochrome P450 2C9; format: ADME
Cytochrome P450 2B6 [7] = target: T7, Cytochrome P450 2B6 (Homo sapiens, UniProt P20813); experiment: Mechanism based inhibition of human cytochrome P450 2B6; format: ADME
T7 sequence (P20813 whole entry): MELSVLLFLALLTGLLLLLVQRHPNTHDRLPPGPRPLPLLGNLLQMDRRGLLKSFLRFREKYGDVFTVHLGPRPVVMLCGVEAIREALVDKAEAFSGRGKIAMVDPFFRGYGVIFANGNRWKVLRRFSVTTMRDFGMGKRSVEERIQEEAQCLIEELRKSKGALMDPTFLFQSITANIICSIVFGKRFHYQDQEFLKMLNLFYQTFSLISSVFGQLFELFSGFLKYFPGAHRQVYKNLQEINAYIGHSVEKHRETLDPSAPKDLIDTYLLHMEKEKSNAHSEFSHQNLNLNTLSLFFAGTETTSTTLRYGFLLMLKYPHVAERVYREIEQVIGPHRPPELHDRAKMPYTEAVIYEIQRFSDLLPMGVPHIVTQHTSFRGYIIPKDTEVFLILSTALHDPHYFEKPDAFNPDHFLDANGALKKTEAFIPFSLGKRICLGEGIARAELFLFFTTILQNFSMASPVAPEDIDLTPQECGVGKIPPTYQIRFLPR

Cytochrome P450 2C19 [8] = target: T4, Cytochrome P450 2C19; experiment: Mechanism based inhibition of human cytochrome P450 2C19; format: ADME
Cytochrome P450 2D6 [9] = target: T8, Cytochrome P450 2D6 (Homo sapiens, UniProt P10635); experiment: (§1) Mechanism based inhibition of human cytochrome P450 2D6 measured by dextromethorphan O-demethylation using recombinant CYP2D6; format: ADME
CYP2D6 [10] = target: T9, CYP2D6 (Homo sapiens, UniProt P10635); experiment: as §1; format: ADME; details: human, recombinant CYP2D6, probe dextromethorphan
Cytochrome P450 2D6 [11] = target: T8, Cytochrome P450 2D6; experiment: (§2) Mechanism based inhibition of human cytochrome P450 2D6 measured by dextromethorphan O-demethylation using human liver microsomes; format: ADME, Microsome
CYP2D6 [12] = target: T9, CYP2D6; experiment: as §2; format: ADME, Microsome; details: human, human liver microsomes, probe dextromethorphan
Cytochrome P450 3A4 [13] = target: T10, Cytochrome P450 3A4 (Homo sapiens, UniProt P08684); experiment: Mechanism based inhibition of human cytochrome P450 3A4 measured by 1'-hydroxymidazolam production; format: ADME
Cytochrome P450 3A4 [14] = target: T10, Cytochrome P450 3A4; experiment: Mechanism based inhibition of human cytochrome P450 3A4 measured by testosterone 6-beta hydroxylation; format: ADME
Cytochrome P450 1A2 [15] = target: T5, Cytochrome P450 1A2; experiment: Mechanism based inhibition of human cytochrome P450 1A2 measured by 7-ethoxyresorufin O-deethylation (EROD); format: ADME
Cytochrome P450 2C9 [16] = target: T6, Cytochrome P450 2C9; experiment: Mechanism based inhibition of human cytochrome P450 2C9 measured by Tolbutamide methyl hydroxylation; format: ADME
CYP2C8 [17] = target: T11, CYP2C8 (Homo sapiens, UniProt P10632); experiment: in vitro; details: recombinant CYP2C8, probe paclitaxel
T11 sequence (P10632 whole entry): T2 sequence (P10632 whole entry)
Description: as §4

Cytochrome P450 2C8 [18] = target: T2, Cytochrome P450 2C8; remark: listed apart in the source
Description: (§5) Mechanism based inhibition of human cytochrome P450 2C8 measured by paclitaxel hydroxylation using human liver microsomes

CYP2C8 [19] = target: T11, CYP2C8; experiment: in vitro; details: human liver microsomes, probe paclitaxel
Description: as §5

CYP2E1 = CYP2E1 (Homo sapiens, UniProt P05181); experiment: (§3) Mechanism based inhibition of human cytochrome P450 2E1; format: ADME; details: human
Cytochrome P450 2E1 [20] = target: T1, Cytochrome P450 2E1; experiment: as §3; format: ADME
Cytochrome P450 2B1 = target: T12, Cytochrome P450 2B1 (Rattus norvegicus, UniProt P00176); experiment: Mechanism based inhibition of rat cytochrome P450 CYP2B1 measured by 7-EFC O-deethylation activity; format: ADME; details: rat
T12 sequence (P00176 whole entry): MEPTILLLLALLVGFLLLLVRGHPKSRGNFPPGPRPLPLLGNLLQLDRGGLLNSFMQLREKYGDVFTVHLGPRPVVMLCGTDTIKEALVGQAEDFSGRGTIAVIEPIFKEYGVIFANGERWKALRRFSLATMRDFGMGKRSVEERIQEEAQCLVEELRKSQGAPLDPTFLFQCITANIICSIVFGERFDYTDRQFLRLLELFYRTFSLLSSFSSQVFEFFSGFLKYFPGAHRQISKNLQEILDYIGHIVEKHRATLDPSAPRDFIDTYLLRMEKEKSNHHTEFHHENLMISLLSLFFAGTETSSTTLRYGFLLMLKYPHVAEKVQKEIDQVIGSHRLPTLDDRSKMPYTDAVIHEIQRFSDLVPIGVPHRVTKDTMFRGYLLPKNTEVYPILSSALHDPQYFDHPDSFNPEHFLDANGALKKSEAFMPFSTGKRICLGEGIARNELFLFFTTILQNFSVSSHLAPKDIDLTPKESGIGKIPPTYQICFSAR

Cytochrome P450 2C9 [21] = target: T6, Cytochrome P450 2C9; experiment: Mechanism based inhibition of human cytochrome P450 2C9 measured by 7-EFC O-deethylation; format: ADME
Cytochrome P450 3A4 [22] = target: T10, Cytochrome P450 3A4; experiment: Mechanism based inhibition of human cytochrome P450 3A4 measured by midazolam 1'-hydroxylation; format: ADME
Cytochrome P450 2B6 [23] = target: T7, Cytochrome P450 2B6; experiment: Mechanism based inhibition of human cytochrome P450 2B6 measured by 7-EFC O-deethylation; format: ADME

T6 sequence (P11712 whole entry): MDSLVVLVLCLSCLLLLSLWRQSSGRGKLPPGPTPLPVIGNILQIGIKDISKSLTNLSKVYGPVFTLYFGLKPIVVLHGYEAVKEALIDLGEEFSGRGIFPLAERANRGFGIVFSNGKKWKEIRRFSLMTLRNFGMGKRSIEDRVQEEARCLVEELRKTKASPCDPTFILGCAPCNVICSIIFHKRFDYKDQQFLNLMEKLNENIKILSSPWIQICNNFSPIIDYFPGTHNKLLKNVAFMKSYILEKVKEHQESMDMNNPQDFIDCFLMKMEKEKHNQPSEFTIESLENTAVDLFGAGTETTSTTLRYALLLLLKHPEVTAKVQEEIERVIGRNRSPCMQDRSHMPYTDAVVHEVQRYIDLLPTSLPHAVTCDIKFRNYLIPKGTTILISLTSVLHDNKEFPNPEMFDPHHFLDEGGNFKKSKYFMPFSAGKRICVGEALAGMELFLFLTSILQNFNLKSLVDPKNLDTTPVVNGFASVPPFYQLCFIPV
T10 sequence (P08684 whole entry): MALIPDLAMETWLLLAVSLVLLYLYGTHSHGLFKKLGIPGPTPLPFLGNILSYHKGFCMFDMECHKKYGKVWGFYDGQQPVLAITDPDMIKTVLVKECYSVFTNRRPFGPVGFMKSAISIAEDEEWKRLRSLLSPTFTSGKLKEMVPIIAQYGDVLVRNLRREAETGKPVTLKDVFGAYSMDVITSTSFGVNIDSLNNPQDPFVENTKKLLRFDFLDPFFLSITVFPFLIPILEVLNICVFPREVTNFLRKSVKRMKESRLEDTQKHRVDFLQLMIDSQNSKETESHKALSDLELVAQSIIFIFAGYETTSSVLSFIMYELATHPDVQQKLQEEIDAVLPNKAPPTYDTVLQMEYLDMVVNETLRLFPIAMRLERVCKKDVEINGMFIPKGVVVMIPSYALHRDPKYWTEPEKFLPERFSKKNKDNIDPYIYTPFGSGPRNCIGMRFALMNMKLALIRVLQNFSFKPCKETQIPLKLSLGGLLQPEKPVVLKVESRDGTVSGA
T8 sequence (P10635 whole entry): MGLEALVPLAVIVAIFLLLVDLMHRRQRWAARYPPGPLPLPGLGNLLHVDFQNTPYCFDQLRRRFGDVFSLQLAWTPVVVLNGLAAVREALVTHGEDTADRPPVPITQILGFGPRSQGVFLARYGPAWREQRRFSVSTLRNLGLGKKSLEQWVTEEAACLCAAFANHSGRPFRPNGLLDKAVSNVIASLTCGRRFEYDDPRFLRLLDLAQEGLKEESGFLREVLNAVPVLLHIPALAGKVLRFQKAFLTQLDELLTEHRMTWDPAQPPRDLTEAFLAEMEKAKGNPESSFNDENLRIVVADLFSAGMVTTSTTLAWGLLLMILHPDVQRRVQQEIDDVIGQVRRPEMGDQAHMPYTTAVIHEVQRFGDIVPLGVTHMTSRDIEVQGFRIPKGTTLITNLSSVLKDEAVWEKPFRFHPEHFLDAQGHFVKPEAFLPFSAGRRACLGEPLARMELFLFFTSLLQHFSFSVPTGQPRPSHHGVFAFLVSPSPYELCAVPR
T9 sequence (P10635 whole entry): as above
T4 sequence (P33261 whole entry): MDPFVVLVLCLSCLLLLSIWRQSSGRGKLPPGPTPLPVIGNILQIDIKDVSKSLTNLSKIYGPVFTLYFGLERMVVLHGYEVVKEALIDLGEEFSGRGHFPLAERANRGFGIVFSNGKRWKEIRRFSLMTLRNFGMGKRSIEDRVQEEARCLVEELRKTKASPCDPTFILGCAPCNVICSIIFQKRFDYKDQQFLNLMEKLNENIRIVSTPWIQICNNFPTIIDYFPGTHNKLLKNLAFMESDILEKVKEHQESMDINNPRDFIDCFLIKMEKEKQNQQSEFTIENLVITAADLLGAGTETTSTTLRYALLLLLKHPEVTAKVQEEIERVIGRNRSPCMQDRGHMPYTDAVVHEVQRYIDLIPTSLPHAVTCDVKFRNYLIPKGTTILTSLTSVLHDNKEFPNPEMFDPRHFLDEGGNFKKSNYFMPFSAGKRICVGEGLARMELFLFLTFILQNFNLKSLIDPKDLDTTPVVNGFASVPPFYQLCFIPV
T1 sequence (P05181 whole entry): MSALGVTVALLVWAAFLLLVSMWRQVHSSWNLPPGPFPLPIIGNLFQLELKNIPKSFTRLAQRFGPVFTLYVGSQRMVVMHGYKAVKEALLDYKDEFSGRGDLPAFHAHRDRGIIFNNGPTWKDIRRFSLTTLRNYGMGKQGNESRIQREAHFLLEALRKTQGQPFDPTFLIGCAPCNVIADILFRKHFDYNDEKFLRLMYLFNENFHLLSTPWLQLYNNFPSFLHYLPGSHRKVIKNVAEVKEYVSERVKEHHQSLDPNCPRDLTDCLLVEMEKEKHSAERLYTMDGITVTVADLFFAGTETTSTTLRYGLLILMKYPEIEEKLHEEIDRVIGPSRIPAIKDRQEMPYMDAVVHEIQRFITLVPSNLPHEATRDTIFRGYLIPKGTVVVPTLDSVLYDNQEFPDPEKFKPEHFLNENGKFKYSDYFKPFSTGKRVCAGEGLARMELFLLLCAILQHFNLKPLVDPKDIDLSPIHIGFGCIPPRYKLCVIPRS
Chain of CYP2E1 (P05181 whole entry): as above

Which mechanism based inhibition (Cytochrome P450 2E1 [1]) does the source give for FC(F)(F)C(Cl)Br (configuration not stated) [HALOTHANE] here?
Its mechanism based inhibition is “Cytochrome P450 mechanistic inhibitor: PMID 8902272”.

Which Ki (Cytochrome P450 2C8 [2]) does the source give for NNC(=O)c1ccncc1 [ISONIAZID] here?
The Ki was 374 µM.

And the Ki (Cytochrome P450 2C8 [3])?
The Ki was 170 µM.

And the Ki (Cytochrome P450 2A6)?
Its Ki is 60 µM.

What about the Ki (Cytochrome P450 2C19 [4]) of the same compound?
Its Ki is 10 µM.

What about the Ki (Cytochrome P450 1A2 [5]) of the same compound?
Its Ki is 56 µM.

With Cn1cc[nH]c1=S [METHIMAZOLE] as the compound, how does the mechanism based inhibition (Cytochrome P450 2C9 [6]) read?
The mechanism based inhibition was “Cytochrome P450 mechanistic inhibitor: PMID 9172960”.

What about the mechanism based inhibition (Cytochrome P450 2B6 [7]) of the same compound?
The mechanism based inhibition was “Cytochrome P450 mechanistic inhibitor: PMID 9172960”.

What about the mechanism based inhibition (Cytochrome P450 2C19 [8]) of the same compound?
The mechanism based inhibition was “Cytochrome P450 mechanistic inhibitor: PMID 9172960”.

How did the Ki (Cytochrome P450 2D6 [9]) turn out when CNC(C)Cc1ccc2c(c1)OCO2 (configuration not stated) [MIDOMAFETAMINE] was run?
The Ki was 12.9 µM.

And the kinact (CYP2D6 [10])?
Its kinact is 0.00483 s⁻¹.

What about the Ki (Cytochrome P450 2D6 [11]) of the same compound?
The Ki was 22.8 µM.

What about the kinact (CYP2D6 [12]) of the same compound?
Its kinact is 0.00283 s⁻¹.

How did the mechanism based inhibition (Cytochrome P450 3A4 [13]) turn out when CCc1nn(CCCN2CCN(c3cccc(Cl)c3)CC2)c(=O)n1CCOc1ccccc1 [NEFAZODONE] was run?
The mechanism based inhibition was “Cytochrome P450 mechanistic inhibitor: PMID 15523046”.

With CCOP(=S)(OCC)Oc1ccc([N+](=O)[O-])cc1 [PARATHION] as the compound, how does the mechanism based inhibition (Cytochrome P450 3A4 [14]) read?
The mechanism based inhibition was “Cytochrome P450 mechanistic inhibitor: PMID 9023313”.

What about the mechanism based inhibition (Cytochrome P450 1A2 [15]) of the same compound?
Its mechanism based inhibition is “Cytochrome P450 mechanistic inhibitor: PMID 9023313”.

What about the mechanism based inhibition (Cytochrome P450 2C9 [16]) of the same compound?
Its mechanism based inhibition is “Cytochrome P450 mechanistic inhibitor: PMID 9023313”.

Which Ki (Cytochrome P450 2C8 [2]) does the source give for NNCCc1ccccc1 [PHENELZINE] here?
The Ki was 1.2 µM.

What about the kinact (CYP2C8 [17]) of the same compound?
Its kinact is 0.00405 s⁻¹.

What about the Ki (Cytochrome P450 2C8 [18]) of the same compound?
Its Ki is 54.3 µM.

What about the kinact (CYP2C8 [19]) of the same compound?
Its kinact is 0.00283 s⁻¹.

With S=C=NCCc1ccccc1 [PHENETHYLISOTHIOCYANATE] as the compound, how does the kinact (CYP2E1) read?
Its kinact is 0.00565 s⁻¹.

What about the Ki (Cytochrome P450 2E1 [20]) of the same compound?
The Ki was 9.98 µM.

And the mechanism based inhibition (Cytochrome P450 2B1)?
The mechanism based inhibition was “Cytochrome P450 mechanistic inhibitor: PMID 11454729”.

With COc1cc(C2Oc3cc([C@H]4Oc5cc(O)cc(O)c5C(=O)[C@@H]4O)ccc3OC2CO)ccc1O (some centres not stated) [SILIBININ] as the compound, how does the Ki (Cytochrome P450 2C9 [21]) read?
Its Ki is 5 µM.

Which mechanism based inhibition (Cytochrome P450 3A4 [22]) does the source give for CC/C(=C(\c1ccccc1)c1ccc(OCCN(C)C)cc1)c1ccccc1 [TAMOXIFEN] here?
Its mechanism based inhibition is “Cytochrome P450 mechanistic inhibitor”.

What about the Ki (Cytochrome P450 2B6 [23]) of the same compound?
The Ki was 0.9 µM.

Reference: ChEMBL document CHEMBL1743341, “Cytochrome p450 enzymes mechanism based inhibitors: common sub-structures and reactivity” (Curr Drug Metab, 2005)
